# ChEMBL document CHEMBL1201862, “PubChem BioAssay data set” (2004)
# The source made the active and inactive calls.
# What was measured:
# [1] = target: T1, Polyadenylate-binding protein 1 (Homo sapiens, UniProt P11940); assay: PABP1 MLLE–PAM2 binding inhibitor potency, dose response, biochemical, fluorescence polarization, FITC-PAM2 peptide (AID 602259); format: functional; conditions: read-out: IC50_Mean
# [2] = target: T1, Polyadenylate-binding protein 1; assay: PABP1 MLLE–PAM2 interaction inhibitors, dose response, miRNA deadenylation inhibitor project, biochemical, fluorescence polarization, Cy5-PAM2 peptide, secondary (AID 602260); format: functional; conditions: read-out: IC50_Mean
# [3] = NIH-3T3 fibroblast cytotoxicity, dose response, cytotoxicity control, cell-based, fluorescence, Alamar Blue, secondary assay (AID 2327); format: functional;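 further: NIH-3T3 mouse fibroblasts cultured with fluconazole at 8 µg/mL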
# HeLa = assay: HeLa cell cytotoxicity, dose response, cytotoxicity control for MITF activator project, CellTiter-Glo luminescence, cherry-pick samples (AID 540259); format: functional, cell-based; conditions: Homo sapiens
# [4] = C. albicans growth with fluconazole, confirmation, fluorescence, retest (AID 2467); format: functional, cell-based
# [5] = P. falciparum late gametocyte killing, dose response, luminescence (AID 1117278); format: functional, cell-based;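 further: gametocytes exposed to compound for 24 hours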
# [6] = Jurkat T cell cytotoxicity, dose response, cytotoxicity control for P. falciparum gametocyte viability project, luminescence (AID 1117277); format: functional, cell-based;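 further: potency reflects loss of cellular ATP meaning fewer viable cells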
# Prothrombin = Prothrombin (Homo sapiens, UniProt P00734); assay: Thrombin 1536 HTS Dose Response Confirmation. [Related pubchem assays: 1046 (Thrombin 1536 HTS; hits were confirmed in this assay)]; format: functional
# [7] = Luminescence Cell-Based Dose Confirmation HTS to Identify Activators of 5'UTR Stem-Loop Driven Alpha-Synuclein mRNA Translation in H4 Neuroglioblastoma Cells. [Related pubchem assays: 1829 (Project Summary), 1814 (Primary HTS)]; format: functional
# H4 = assay: Luminescence Cell-Based Dose Response HTS to Identify Activators of 5'UTR Stem-Loop Driven Prion Protein mRNA Translation in H4 Neuroglioblastoma Cells. [Related pubchem assays: 1829 (Project Summary), 1814 (Primary HTS)]; format: functional; conditions: Homo sapiens
# [8] = Luminescence Cell-Based Dose Response HTS to Identify Activators of Luciferase Translation or Activity in H4 […] Cells. [Related pubchem assays: 1829 (Project Summary), 1814 (Primary HTS)]; format: functional
# [9] = target: T2, Mannose-6-phosphate isomerase (Homo sapiens, UniProt P34949); assay: human PMI inhibitors, high substrate, primary screen, biochemical, fluorescence intensity, high mannose 6-phosphate (AID 1220)
# T2 sequence (P34949 whole entry): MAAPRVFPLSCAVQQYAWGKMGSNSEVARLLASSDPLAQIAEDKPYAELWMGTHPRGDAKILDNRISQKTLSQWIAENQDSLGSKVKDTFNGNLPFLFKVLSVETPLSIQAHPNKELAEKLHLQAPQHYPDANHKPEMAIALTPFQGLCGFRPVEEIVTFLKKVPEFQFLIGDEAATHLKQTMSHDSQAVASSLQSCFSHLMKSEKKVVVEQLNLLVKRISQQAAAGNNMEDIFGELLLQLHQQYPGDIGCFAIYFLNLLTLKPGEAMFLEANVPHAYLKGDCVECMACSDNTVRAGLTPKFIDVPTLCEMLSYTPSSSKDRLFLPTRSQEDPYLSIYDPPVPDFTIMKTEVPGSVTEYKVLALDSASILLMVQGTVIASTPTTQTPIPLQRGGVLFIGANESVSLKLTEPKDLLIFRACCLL
# [10] = target: Induced myeloid leukemia cell differentiation protein Mcl-1 (Homo sapiens, UniProt Q07820); format: functional
# Chain of Induced myeloid leukemia cell differentiation protein Mcl-1 (Q07820 whole entry, the tested form may be a part): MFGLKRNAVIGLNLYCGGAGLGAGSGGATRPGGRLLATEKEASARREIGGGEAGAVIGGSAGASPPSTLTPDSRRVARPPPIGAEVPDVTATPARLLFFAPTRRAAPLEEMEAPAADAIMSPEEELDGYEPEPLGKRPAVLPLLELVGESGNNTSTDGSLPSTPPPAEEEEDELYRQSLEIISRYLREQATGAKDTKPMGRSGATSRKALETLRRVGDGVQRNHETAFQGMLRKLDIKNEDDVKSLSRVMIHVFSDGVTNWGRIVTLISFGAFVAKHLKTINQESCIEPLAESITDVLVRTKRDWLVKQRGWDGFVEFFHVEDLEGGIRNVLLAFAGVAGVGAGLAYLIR
# [11] = target: T3, Carboxy-terminal domain RNA polymerase II polypeptide A small phosphatase 1 (Homo sapiens, UniProt Q9GZU7); assay: inhibitors of CTDSP1, concentration-response testing, biochemical assay, absorbance-based, actives from ultra-high-throughput screening (AID 540297); format: functional
# T3 sequence (Q9GZU7 whole entry): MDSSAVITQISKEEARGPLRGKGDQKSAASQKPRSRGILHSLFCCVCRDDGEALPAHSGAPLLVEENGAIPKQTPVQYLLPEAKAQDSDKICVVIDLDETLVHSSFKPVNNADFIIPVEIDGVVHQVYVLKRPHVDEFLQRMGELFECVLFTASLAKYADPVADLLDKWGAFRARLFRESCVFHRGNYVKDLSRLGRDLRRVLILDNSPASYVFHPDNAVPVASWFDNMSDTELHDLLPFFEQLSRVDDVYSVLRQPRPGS
# [12] = inhibitors of intracellular T. cruzi replication, confirmation, NIH3T3 host cells, beta-gal luminescence (AID 2044); format: functional, cell-based;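 further: intracellular parasites grown in NIH/3T3 mouse fibroblasts as host cells; luminescent beta-galactosidase reporter signal from transgenic T. cruzi replicating inside host cells; inhibitors lower the luminescence signal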
# [13] = cytotoxicity toward NIH3T3 fibroblasts, dose response, counter-screen, cell-based, ATP luminescence, mouse fibroblasts (AID 2010); format: functional;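 further: cells exposed to compound for about 90 hours before reading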
# Protein skinhead-1 = target: T4, Protein skinhead-1 (Caenorhabditis elegans, UniProt P34707); format: functional
# T4 sequence (P34707 whole entry): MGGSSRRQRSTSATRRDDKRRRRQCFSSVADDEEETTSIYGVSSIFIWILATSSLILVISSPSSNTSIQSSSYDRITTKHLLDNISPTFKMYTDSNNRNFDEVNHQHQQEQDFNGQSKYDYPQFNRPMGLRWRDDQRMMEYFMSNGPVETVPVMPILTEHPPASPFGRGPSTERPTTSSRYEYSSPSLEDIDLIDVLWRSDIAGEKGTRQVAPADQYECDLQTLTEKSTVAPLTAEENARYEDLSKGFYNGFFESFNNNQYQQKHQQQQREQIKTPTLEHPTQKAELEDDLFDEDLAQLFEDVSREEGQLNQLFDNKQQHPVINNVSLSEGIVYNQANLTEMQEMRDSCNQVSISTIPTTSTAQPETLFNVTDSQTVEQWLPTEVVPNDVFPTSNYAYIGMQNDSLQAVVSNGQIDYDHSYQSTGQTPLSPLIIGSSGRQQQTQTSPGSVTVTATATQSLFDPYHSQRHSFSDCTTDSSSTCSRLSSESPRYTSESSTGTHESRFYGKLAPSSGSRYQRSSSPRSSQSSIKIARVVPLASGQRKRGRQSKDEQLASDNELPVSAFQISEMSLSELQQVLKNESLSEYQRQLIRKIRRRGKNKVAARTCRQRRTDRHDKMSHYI
# [14] = growth suppression of PTEN-null colon cells, dose response, cell-based, HCT116 PTEN knockout (AID 1047); format: functional;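 further: HCT116 colon tumor cells with PTEN knocked out; cells exposed to compound for 60 hours before readout; potency for loss of cell viability measured by luminescence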
# [15] = growth suppression of beta-catenin-knockout colon cells, dose response, cell-based, HCT116, human colon tumor (AID 1045); format: functional;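 further: HCT116 colon tumor cells with beta catenin knocked out; cells exposed to compound for 60 hours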
# [16] = LGR2 antagonists, dose response, cell-based, HEK293, CRE-luciferase reporter, cherry pick, set 2 (AID 743343); format: functional;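 further: transfected cells were stimulated with diluted bursicon conditioned medium after compound addition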
# [17] = MC4R antagonists, dose response, counter-screen for LGR2 antagonist project, cell-based, plate reader, cherry pick (AID 743444); format: functional;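 further: transfected HEK 293 cells stimulated with alpha-MSH peptide; potency of inhibitors of the alpha-MSH evoked signal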
# [18] = A549 cell cytotoxicity, dose response, cytotoxicity control, plate reader, cherry-pick, antagonist series (AID 743412); format: functional, cell-based
# [19] = HepG2 cell cytotoxicity, dose response, cytotoxicity control, plate reader, cherry-pick, antagonist series (AID 743416); format: functional, cell-based
# [20] = inhibitors of clade B AD8 Env fusion, dose response, cell-based, cherry-pick (AID 652062); format: functional;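 further: luciferase signal from cell-cell fusion driven by HIV-1 clade B AD8 Env; potency is for inhibitors of fusion seen as a drop in luminescence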
# [21] = inhibitors of HIV Env-driven cell fusion, dose response, cherry-pick (AID 652057); format: functional, cell-based
# [22] = P. falciparum Dd2 growth inhibitors, dose response, SYBR Green, dry powder samples (AID 1159566); format: functional, cell-based;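 further: potency for growth inhibition with lower SYBR green DNA signal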
# [23] = P. falciparum ATP4 D1247Y mutant growth inhibitors, dose response, NITD609-resistant line, SYBR Green, dry powder (AID 1159571); format: functional, cell-based;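 further: parasites synchronized at ring stage by sorbitol before testing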
# [24] = P. falciparum Dd2 growth inhibitors, dose response, SYBR Green, cherry-picked samples (AID 1159567); format: functional, cell-based
# [25] = P. falciparum 3D7-ScDHODH growth inhibitors, dose response, SYBR Green, dry powder samples (AID 1159570); format: functional, cell-based;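 further: parasite growth measured after 72 hours of compound exposure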
# T1 sequence (P11940 whole entry): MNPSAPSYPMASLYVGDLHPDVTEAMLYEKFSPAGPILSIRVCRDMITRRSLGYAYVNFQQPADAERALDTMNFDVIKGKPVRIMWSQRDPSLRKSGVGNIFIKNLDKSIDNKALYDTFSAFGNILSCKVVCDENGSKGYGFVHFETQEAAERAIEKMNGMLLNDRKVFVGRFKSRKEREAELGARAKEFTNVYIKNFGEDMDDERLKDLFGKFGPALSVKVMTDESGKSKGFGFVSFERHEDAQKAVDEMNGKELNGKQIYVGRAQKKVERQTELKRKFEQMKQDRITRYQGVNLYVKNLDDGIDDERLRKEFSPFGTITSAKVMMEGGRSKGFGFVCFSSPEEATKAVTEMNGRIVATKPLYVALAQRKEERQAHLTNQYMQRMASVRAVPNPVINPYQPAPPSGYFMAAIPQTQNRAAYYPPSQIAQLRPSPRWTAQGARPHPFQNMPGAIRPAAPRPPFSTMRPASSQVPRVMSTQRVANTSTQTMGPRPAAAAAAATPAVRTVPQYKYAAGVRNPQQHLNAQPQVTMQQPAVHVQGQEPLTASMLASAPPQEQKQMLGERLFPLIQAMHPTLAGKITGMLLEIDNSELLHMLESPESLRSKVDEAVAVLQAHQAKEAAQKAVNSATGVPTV
smiles,measurement,setting,value
O=C(O)c1cccc(NC(=S)NC(=O)c2cccc(OCc3ccccc3)c2)c1,IC50,[1],> 66 µM (inactive)
same,IC50,[2],> 66 µM (inactive)
Cc1ccc(Nc2nc(Cl)nc(NC(C)(C)C)n2)cc1,EC50,[3],> 160 µM (inactive)
same,AC50,HeLa,159 µM (active)
same,EC50,[4],1.98 µM (active)
COCC(C)n1c(C)cc(C(=O)COC(=O)c2ccc3c(c2)NC(=O)CS3)c1C (centres undefined),IC50,[1],> 66 µM (inactive)
same,IC50,[2],> 66 µM (inactive)
Cc1cccc(NC(=O)c2cc3n(n2)C(C(F)(F)F)CC(C2CC2)N3)c1C (centres undefined),IC50,[5],> 109 µM (inactive)
same,IC50,[6],> 83.3 µM (inactive)
COc1ccc(OC)c(C2=NOC(C(=O)Nc3cc(C)on3)C2)c1 (centres undefined),IC50,[5],> 109 µM (inactive)
same,IC50,[6],> 83.4 µM (inactive)
CCOc1cc(S(=O)(=O)N2CCCCC2)ccc1Cl,IC50,Prothrombin,> 50 µM (not active)
CCN(CC)Cc1ccccc1Sc1ccccc1,IC50,Prothrombin,> 50 µM (not active)
COCC(=O)n1nc(-c2ccccc2)nc1NCc1ccc(F)cc1,IC50,Prothrombin,0.103 µM (active)
Cc1cccn2cc(-c3ccc4c(c3)NC(=O)CO4)nc12,EC50,[7],7.24 µM (active)
same,IC50,[5],> 109 µM (inactive)
same,IC50,[6],> 83.3 µM (inactive)
same,EC50,H4,7 µM (active)
same,EC50,[8],34.6 µM (active)
CCN(Cc1ccncc1)Cc1c(O)ccc2ccccc12,IC50,[9],> 50 µM (not active)
CCc1nnc(NC(=O)c2cc(-c3ccco3)nc3ccccc23)s1,IC50,[10],3.18 µM (active)
same,IC50,[11],4.01 µM (active)
CCc1c(C)sc(NC(=O)c2cc(C3CC3)on2)c1C#N,IC50,[1],> 66 µM (inactive)
same,IC50,[2],> 66 µM (inactive)
Cc1cc(N2CCN(c3ccccc3)CC2)nc(-c2ccccc2)n1,IC50,Prothrombin,> 50 µM (not active)
CC(=O)Nc1c(Nc2ccccc2)c2ccccc2oc1=O,IC50,[1],> 66 µM (inactive)
same,IC50,[2],> 66 µM (inactive)
Oc1ccc(CNc2ccc(F)cc2)c2cccnc12,IC50,[9],31 µM (active)
same,EC50,[12],5.56 µM (active)
same,EC50,[13],> 60 µM (not active)
CC(C)c1ccc(-c2c(C#N)c(N)nc(SCC(=O)N3CCCCCC3)c2C#N)cc1,IC50,Prothrombin,> 50 µM (not active)
Nc1cc(Nc2ccccc2)c2nonc2c1[N+](=O)[O-],IC50,[1],> 66 µM (inactive)
same,IC50,[2],> 66 µM (inactive)
C(=C\c1nnc(-c2cccs2)o1)/c1ccccc1,IC50,Protein skinhead-1,11.9 µM (active)
same,AC50,HeLa,50.6 µM (active)
c1cncc(-c2nnc(-c3cccnc3)nn2)c1,IC50,[1],> 66 µM (inactive)
same,EC50,[14],9.23 µM (active)
same,IC50,[2],> 66 µM (inactive)
same,EC50,[15],9.6 µM (active)
O=C1/C(=C/c2ccccn2)SC(=S)N1c1ccc(O)cc1,IC50,[10],5.85 µM (active)
CCOC(=O)N1CCN(C(=O)c2ccccc2N(C)S(C)(=O)=O)CC1,IC50,Prothrombin,> 50 µM (not active)
CCC(Oc1ccccc1)C(=O)NCc1ccc(S(N)(=O)=O)cc1 (centres undefined),IC50,[5],> 109 µM (inactive)
same,IC50,[6],> 83.3 µM (inactive)
O=C1C2C3C=CC(C2C(=O)N1c1cccc(O)c1)C1C2C(=O)N(c4cccc(O)c4)C(=O)C2C31 (centres undefined),IC50,[10],9.49 µM (not active)
O=C(CCc1nnc(CCCCc2ccccc2)o1)N1CCCC(O)C1 (centres undefined),AC50,[16],3.63 µM (active)
same,AC50,[17],3.46 µM (active)
same,AC50,[18],0.513 µM (active)
same,AC50,[19],> 52 µM (inactive)
O=C1OC(c2ccccc2)C2(CCCC2)C(=O)C12CCCC2 (centres undefined),IC50,[5],> 109 µM (inactive)
same,IC50,[6],> 83.3 µM (inactive)
Cc1c(O)ccc(/C=N/Nc2nc(-c3cccnc3)nc3ccccc23)c1O,IC50,[10],6.03 µM (active)
Cc1ccc(-c2ccc3c(c2)O[C@H](CN(C)Cc2ccncc2)[C@@H](C)CN([C@@H](C)CO)S3(=O)=O)cc1,AC50,[20],26.5 µM (active)
same,AC50,[21],12.8 µM (active)
N#C[C@@H]1[C@H](c2ccc(C#Cc3cccc(F)c3)cc2)[C@@H](CO)N1C(=O)C1CC1,AC50,[16],61.3 µM (active)
same,AC50,[18],24.4 µM (active)
same,AC50,[19],36.7 µM (active)
C[C@H]1CN([C@@H](C)CO)C(=O)c2cc(NC(=O)Nc3ccccc3)ccc2O[C@H]1CN(C)Cc1ccc(-c2ccccc2)cc1,AC50,[17],39.4 µM (active)
same,AC50,[18],24.2 µM (active)
same,AC50,[19],> 52 µM (inactive)
C/N=C(/c1ccco1)n1c(=S)nc(-c2ccco2)n(C)c1=S,IC50,[9],> 50 µM (not active)
COc1ccc2c3c([nH]c2c1)[C@H](CO)NCC31CCN(C(=O)Nc2ccc3c(c2)OCO3)CC1,AC50,[22],0.49 µM (active)
same,AC50,[23],0.949 µM (active)
same,AC50,[24],0.914 µM (active)
same,AC50,[25],1.41 µM (active)
